Measured values published in patent US20180339016A1 (priority 2015, published 2018).
Values joined by “and” are separate entries in the source; they are usually repeats but may differ in a detail not shown here. Equal values may be shown once.

What was measured:
[1] = system: Staphylococcus aureus (ATCC 29213); test: MIC of peptide against S. aureus; type: cell-based; conditions: peptide alone
Description: (§1) The N-terminus of the peptides were acetylated and the C-terminus was amidated. The kinked structure can rapidly reduce the alpha-helical content, thereby greatly reducing the toxicity of the peptide against host cells. In addition, because of the potential to show specificity for the Gram-negative bacterial membrane, Pro-mutants were prepared by site-directed mutagenesis. Using the prepared peptides, their MIC for the Gram-negative bacterium E. coli and the Gram-positive bacterium S. aureus and their hemolytic activity for host cells were examined (Table 1).

[2] = system: Escherichia coli (ATCC 25922); conditions: peptide alone; peptide concentration required to inhibit growth by 20% (so in the source)
Description: as §1
(§2) To measure the synergy between the membrane-activating peptides and the repositioning drug, a 10× compound was prepared, and then serially diluted ⅔-fold with distilled water. An MH broth (900 μl) was added to and mixed with the 10× compound (100 μl), and then 200 μL of the mixture was taken and added to a 96-well plate. E. coli cultured for one day was adjusted to 0.5 MCF using MCFarland, and diluted 10-fold, and then 10 μl of the dilution was added to each well of the plate (5×10^5 CFU/mL). After addition of the bacterial cells, plate was incubated at 37° C. for 18 hours, and then the OD value at UV-Vis (600 nm) was measured. Cell viability (%)=(OD600 of sample−OD600 of negative control)/(OD600 of positive control−OD600 of negative control)×100.

E. coli ATCC 25922 [3] = test: Antibiotic interaction assay (Wimley), 2/3 broth microdilution: MIC alone, MIC of combination, FICI; type: cell-based; conditions: for MIC of combination (μM): antibiotic (colistin): colistin concentration in combination with labelled peptide; for MIC of peptide: peptide alone
Description: Synergy was evaluated by an antibiotic interaction assay (Wimley, 2015) Using the method of Wimley (BBA, 2015, v. 1848(1), pp. 8-15), synergy between the membrane-activating peptide and an antibiotic was measured by an FICI value (FIG. 17). […] Thus, to accurately examine synergy, a ⅔ dilution method which observes MIC at denser concentration intervals is advantageous over a ½ dilution method in statistical terms. […] In the same manner, the MIC of an antibiotic or repositioning drug (second line) is measured. In the third line, the two compounds are mixed after putting half amount each, and the MIC thereof is measured.
A broth microdilution technique (⅔ dilution) was used together with an MH broth. E. coli treated with an antibiotic and the peptide was incubated in a 37° C. incubator for 18 hours.
as §2

E. coli ATCC 25922 [4] = conditions: Table 4
[5] = labelled peptide + colistin + linezolid
[6] = three compounds: labelled peptide + colistin + linezolid

Row | Substance | MIC [μM] Against S. aureus [1] | MIC [μM] Against E. coli [2] | also measured
1 | KLLKPLKKLLKLLK [KL-L5P] | 20 µM | 5.0 µM | –
2 | KLPKLLKKLLKLLK [KL-L3P] | 20 µM | 10 µM | –
3 | KLR8KLLKKPLS5LLK [st 3, 11] | – | 2.5 µM | MIC of combination (μM): antibiotic (colistin) (E. coli ATCC 25922 [3]): 0.12 µM; FICI of peptide with colistin (E. coli ATCC 25922 [3]; labelled peptide + colistin): 0.86; FICIPeptide (E. coli ATCC 25922 [3]; labelled peptide + colistin): 0.59; FICIcolistin / FICIantibiotic (E. coli ATCC 25922 [3]; labelled peptide + colistin): 0.27; FICI of peptide with colistin and linezolid (E. coli ATCC 25922 [3]; [5]): 0.70; FICIPeptide (E. coli ATCC 25922 [3]; [5]): 0.11; FICIcolistin (E. coli ATCC 25922 [3]; [5]): 0.25; FICIlinezolid (E. coli ATCC 25922 [3]; [5]): 0.33; MIC of peptide (E. coli ATCC 25922 [3]): 2.5 µM; MIC of combination (μM): peptide (E. coli ATCC 25922 [3]; peptide concentration in combination with colistin): 0.61 µM; MIC of combination (μM): colistin (E. coli ATCC 25922 [3]; [6]): 0.060 µM; MIC of combination (μM): linezolid (E. coli ATCC 25922 [3]; [6]): 15 µM; MIC of combination (μM): peptide (E. coli ATCC 25922 [3]; [6]): 0.30 µM
4 | KPLKLLKKLLKLLK [KL-L2P] | 20 µM | 5 µM | –
5 | LKKLLKLLKKLLKL | 20 µM | 20 µM | –
6 | LKKLLKLLKKPLKL [LK-L11P] | >40 µM | 5 µM | Fractional Inhibitory Concentration Index (FICI), Colistin & 1 μM peptide (E. coli ATCC 25922 [4]): 0.83, Synergism; MIC (μM) against E. coli ATCC 25922, Peptide alone (E. coli ATCC 25922 [4]; bacterial growth <10% of control): 3 µM
7 | LKKLLKLLKKPPKL [LK-L11PL12P] | >40 µM | 2.5 µM | –
8 | LKKLLKLLKPLLKL [LK-K10P] | 5.0 µM | 5.0 µM | –
9 | LKKLLKLLPKLLKL [LK-K9P] | 5.0 µM | 5.0 µM | –
10 | LKKLLKLPKKPLKL [LK-L8PL11P] | >40 µM | 40 µM | –
11 | LKKLLKPLKKLLKL [LK-L7P] | 20 µM | 2.5 µM | –
12 | LKKLLKPLKKPLKL [LK-L7PL11P] | >40 µM | 20 µM | –
13 | LKKLLKPPKKLLKL [LK-L7PL8P] | >40 µM | 40 µM | MIC of combination (μM): antibiotic (colistin) (E. coli ATCC 25922 [3]): 0.09 µM; FICI of peptide with colistin (E. coli ATCC 25922 [3]; labelled peptide + colistin): 0.3 and 0.34; FICIPeptide (E. coli ATCC 25922 [3]; labelled peptide + colistin): 0.16; FICIcolistin / FICIantibiotic (E. coli ATCC 25922 [3]; labelled peptide + colistin): 0.18; FICI of peptide with colistin and linezolid (E. coli ATCC 25922 [3]; [5]): 0.27; FICIPeptide (E. coli ATCC 25922 [3]; [5]): 0.07; FICIcolistin (E. coli ATCC 25922 [3]; [5]): 0.09; FICIlinezolid (E. coli ATCC 25922 [3]; [5]): 0.11; FICI of peptide with linezolid (E. coli ATCC 25922 [3]; labelled peptide + linezolid): 0.53; FICIPeptide (E. coli ATCC 25922 [3]; labelled peptide + linezolid): 0.26; FICIlinezolid (E. coli ATCC 25922 [3]; labelled peptide + linezolid): 0.27; FICI of peptide with linezolid (E. coli ATCC 25922 [3]; labelled peptide + linezolid, listed as LK-L7P/L8P): about 0.53; MIC of combination (μM): linezolid (E. coli ATCC 25922 [3]; linezolid concentration in combination with labelled peptide): 22 µM; MIC of peptide (E. coli ATCC 25922 [3]): 53 µM; MIC of combination (μM): peptide (E. coli ATCC 25922 [3]; peptide concentration in combination with linezolid): 14 µM; MIC of combination (μM): colistin (E. coli ATCC 25922 [3]; [6]): 0.040 µM; MIC of combination (μM): linezolid (E. coli ATCC 25922 [3]; [6]): 5.9 µM; MIC of combination (μM): peptide (E. coli ATCC 25922 [3]; [6]): 4.7 µM
14 | LKKLLPLLKKLLKL [LK-K6P] | 5.0 µM | 2.5 µM | –
15 | LKKLPKLLKKLLKL [LK-L5P] | 20 µM | 5.0 µM | –
16 | LKKLPKLLKKPLKL [LK-L5PL11P] | >40 µM | 40 µM | –
17 | LKKLPKLPKKLLKL [LK-L5PL8P] | >40 µM | 20 µM | –
18 | LKKPLKLLKKLLKL [LK-L4P] | 40 µM | 5 µM | –
19 | LKKPLKLLKKPLKL [LK-L4PL11P] | >40 µM | >40 µM | –
20 | LKKPLKLPKKLLKL [LK-L4PL8P] | >40 µM | 40 µM | –
21 | LKKPPKLLKKLLKL [LK-L4PL5P] | >40 µM | 5 µM | –
